Results on three molecules are retold here after US6774086B2, “3-Aminocarbonyl-substituted benzoylcyclohexanediones” (Bayer CropScience GmbH, priority 2001, dated 2004).

Assay type in all cases: in vivo
Data set [1] has as its system Stellaria media. Nature of the data set: pre-emergence herbicidal action. As to conditions: 320 g a.i./ha, scored visually after 3 to 4 weeks vs untreated controls. The text has this: (§1) Seeds of mono- and dicotyledonous harmful plants are placed in sandy loam in cardboard pots and covered with soil. The compounds according to the invention, which are formulated in the form of wettable powders or emulsion concentrates, are then applied to the surface of the soil cover as aqueous suspension or emulsion at a dosage rate stated in table B1 with an application rate of 600 to 800 l of water per ha (converted). After the treatment, the pots are placed into a greenhouse and kept under good growth conditions for the harmful plants. The damage to the plants or their emergence is scored visually after the test plants have emerged after an experimental time of 3 to 4 weeks by comparison with untreated controls.

For data set [2], the system named is Amaranthus retroflexus. Nature of the data set: pre-emergence herbicidal action. As to conditions: 320 g a.i./ha, scored visually after 3 to 4 weeks vs untreated controls.
Excerpt: as §1

The test system of data set [3] is Sinapis arvensis. Nature of the data set: pre-emergence herbicidal action. As to conditions: 320 g a.i./ha, scored visually after 3 to 4 weeks vs untreated controls.
Excerpt: as §1

Data set [4] relates to Stellaria media. Nature of the data set: post-emergence herbicidal action. As to conditions: three-leaf stage, 320 g a.i./ha, scored after approx. 3 to 4 weeks. The procedure: (§2) Seeds of mono- and dicotyledonous harmful plants are placed in sandy loam in cardboard pots, covered with soil and grown in the greenhouse under good growth conditions. 2 to 3 weeks after sowing, the test plants are treated in the three-leaf stage. The compounds according to the invention, which are formulated as wettable powders or as emulsion concentrates, are sprayed at a dosage rate stated in table B2 to the surface of the green plant parts at an application rate of 600 to 800 l of water per ha (converted). After the test plants have been left to stand in the greenhouse for approx. 3 to 4 weeks under optimal growth conditions, the effect of the compounds is scored by comparison with compounds of the prior art.

Data set [5] relates to Amaranthus retroflexus. Nature of the data set: post-emergence herbicidal action. The note with it: three-leaf stage, 320 g a.i./ha, scored after approx. 3 to 4 weeks. The procedure:
as §2

The test system of data set [6] is Sinapis arvensis. Nature of the data set: post-emergence herbicidal action. As to conditions: three-leaf stage, 320 g a.i./ha, scored after approx. 3 to 4 weeks. The procedure:
as §2

A further data set concerns Monochoria vaginalis. Nature of the data set: post-emergence action against harmful plants. How it is done: as §2
(§3) In further greenhouse experiments, seeds of barley and of monocotyledonous and dicotyledonous harmful plants are placed in sandy loam, covered with soil and placed in the greenhouse until the plants have developed two to three true leaves. Then, they are treated with the compounds of the formula (I) according to the invention as described above under item 2.

The test system of a further data set is Cyperus serotinus. Nature of the data set: post-emergence action against harmful plants. The procedure: as §2, §3
The next data set has as its system Sagittaria pygmaea. Nature of the data set: post-emergence action against harmful plants. The procedure:
as §2, §3

The subject of another data set is Oryza sativa. Nature of the data set: post-emergence action, crop plant damage.

For the molecule `CN(C(=O)COc1c(S(C)(=O)=O)ccc(C(=O)C2=C(O)CCCC2=O)c1Cl)c1ccccc1` [Compound 1.28], in the data set on Stellaria media [1], the “Action against harmful plants STEME” value is listed as 90%. For the same molecule, the “Action against harmful plants AMARE” value in the data set with Amaranthus retroflexus [2] amounted to 90%. In addition, the “Action against harmful plants SINAL” value with Sinapis arvensis [3] stood at 90%.
Take `CCN(CC)C(=O)COc1c(Cl)ccc(C(=O)C2=C(O)CCCC2=O)c1Cl` [Compound 3.9]: the “Action against harmful plants STEME” value turned out to be 100% in the data set on Stellaria media [4] and 90% with Stellaria media [1]. Further, the “Action against harmful plants AMARE” value was determined as 80% in the data set on Amaranthus retroflexus [5] and 90% in the data set with Amaranthus retroflexus [2]. Moreover, the “Action against harmful plants SINAL” value with Sinapis arvensis [6] came out at 90%; with Sinapis arvensis [3], 80%. The “Action against harmful plants MOOVA” value with Monochoria vaginalis (90 g a.i./ha) is listed as 95%. Besides, the “Action against harmful plants CYPSE” value in the data set with Cyperus serotinus (90 g a.i./ha) is listed as 95%. Further, in the data set on Sagittaria pygmaea (90 g a.i./ha), the “Action against harmful plants SAGPY” value stood at 90%. In addition, in the data set on Oryza sativa (90 g a.i./ha), the “Crop plant damage ORYSP” value turned out to be 0%.
As for `CCN(CC)C(=O)COc1c(Br)ccc(C(=O)C2=C(O)CCCC2=O)c1Br` [Compound 3.65], the figures for the “Action against harmful plants STEME” value in the data set on Stellaria media [4] and in the data set with Stellaria media [1] were 100% and 90%, respectively. In addition, the “Action against harmful plants AMARE” value in the data set on Amaranthus retroflexus [5] was 80%; in the data set on Amaranthus retroflexus [2], 90%. For the same molecule, the “Action against harmful plants SINAL” value with Sinapis arvensis [6] stood at 90%; in the data set with Sinapis arvensis [3], 80%. In addition, the “Action against harmful plants MOOVA” value in the data set with Monochoria vaginalis (50 g a.i./ha) was determined as 99%. Besides, the “Action against harmful plants CYPSE” value in the data set with Cyperus serotinus (50 g a.i./ha) turned out to be 99%. The “Action against harmful plants SAGPY” value in the data set with Sagittaria pygmaea (50 g a.i./ha) stood at 80%. The “Crop plant damage ORYSP” value in the data set with Oryza sativa (50 g a.i./ha) is 0%.
